Experimental data reported in US8569288B2, “Thienotriazolodiazepine derivatives active on apo A” (CircoMed LLC, priority 2008, dated 2013).
Read-outs that look alike come from different tables or passages of the source.

Columns and labels:
[1] = test system: central benzodiazepine receptor (BZD); experiment: Binding to central benzodiazepine receptor, [3H]flunitrazepam displacement on rat cerebral cortex membranes; settings: for % of control specific binding, 1st / % of control specific binding, 2nd / % of control specific binding, mean / IC50: 0.4 nM [3H]flunitrazepam
Description: Affinity of the compounds of the invention to the central benzodiazepine receptor (BZD) was measured by determining the binding of 0.4 nM [^3H]flunitrazepam to rat cerebral cortex membranes, and its displacement by compounds of the invention as compared to the reference ligand diazepam, at 4° C. for 60 min, as described by R. C. Speth et al., Life Sci. 24:351-358 (1979).
The specific binding to the receptors is defined as the difference between the total binding and the non-specific binding determined in the presence of an excess of unlabeled ligand (diazepam). The results are expressed as a percent of control specific binding ((measured specific binding/control specific binding)×100) obtained in the presence of compound 5, 6 and 7.
In each experiment, the respective reference compound was tested concurrently with compound 5, 6 and 7 in order to assess the assay suitability. It was tested at several concentrations (for IC50 value determination).

[2] = test system: apo A1 secretion in human hepatocytes; experiment: Apo A1 secretion by human hepatocytes (ELISA of supernatant, normalised to cell protein); assay type: cell-based; settings: for Apo A1 (ng secreted per mg cell protein), 1st / Apo A1 (ng secreted per mg cell protein), 2nd / Apo A1 (ng secreted per mg cell protein), mean: 3x24 h; for Apo A1 (ng secreted per mg cell protein), 1st: 1st parallel measurement; for Apo A1 (ng secreted per mg cell protein), 2nd: 2nd parallel measurement; for Apo A1 (ng secreted per mg cell protein), mean: mean of two measurements; for Stimulation of apo A1 secretion versus control level (in words): at concentrations as low as 3 μM, human hepatocytes
Description: Human hepatocytes were isolated from pieces of livers, obtained from donors which could not be used for transplantation, following the procedure described in U.S. Pat. No. 6,444,664. The cells were seeded on culture dishes at a density of 1.5×10^5 viable cells per cm^2 and were maintained for the first 24 h in 1.5 mL per 10 cm^2 of Williams E medium supplemented with 10% heat inactivated fetal calf serum (FCS), 2 mmol/L L-glutamine, 20 mU/mL insulin (135 nmol/L), 50 nmol/L dexamethasone, 100 U/mL penicillin, 100 μg/mL streptomycin and 100 μg/mL kanamycin at 37° C. in a 5% CO2/95% air atmosphere. After 14-16 h the non-adherent cells were washed from the plates, using the same culture medium as described above. 24 h after seeding, the incubations with the compounds were started in 1 mL of the same culture medium, but with an insulin concentration of 10 nmol/L instead of 135 nmol/L.
The human hepatocytes were treated with compounds 5, 6 and 7 (dissolved in DMSO, with the final concentration of DMSO not exceeding 0.1% v/v) at concentrations of 100 μM, 30 μM, 10 μM and 3 μM and incubated for 24 hours. The DMSO concentration in all samples and controls was 0.1%. The control wells contained DMSO (0.1% v/v) alone. The medium on the cells was removed and replaced with fresh medium with fresh compound and incubated for 24 hours. The medium was then again removed and replaced with fresh medium with fresh compound and incubated for another 24 hours. The supernatant was then removed from the cells and levels of apo A1 were determined using a commercially available ELISA (AlerCHEK™) with a HRP conjugated goat anti-apo A1 antibody and TMB/peroxidase substrate colour developer. Supernatants were diluted 1:4 with the wash buffer provided in the kit.
After the last incubation the cells were washed twice with PBS, and BCA (bicinchoninic acid) reagent was added to each well to assay total cellular protein according to standard methods.

[3] = test system: plasma apolipoprotein A1 (apo A1); settings: as described in U.S. Pat. No. 5,854,238; cited from earlier work
[4] = target: platelet activating factor (PAF) (Homo sapiens, UniProt P25105); settings: known related thienotriazolodiazepine; cited from earlier work
platelet activating factor (PAF), sequence (P25105 whole entry): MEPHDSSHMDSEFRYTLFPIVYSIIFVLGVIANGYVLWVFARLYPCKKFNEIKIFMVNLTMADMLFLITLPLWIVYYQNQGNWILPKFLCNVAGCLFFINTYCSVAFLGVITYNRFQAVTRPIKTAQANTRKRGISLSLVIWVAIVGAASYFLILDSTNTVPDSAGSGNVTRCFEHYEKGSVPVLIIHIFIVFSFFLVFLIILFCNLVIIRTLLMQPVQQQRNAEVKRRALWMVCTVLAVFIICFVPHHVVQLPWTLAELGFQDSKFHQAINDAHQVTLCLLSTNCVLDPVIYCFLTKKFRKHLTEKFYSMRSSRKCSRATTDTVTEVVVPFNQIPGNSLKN

Structure (SMILES) | Affinity to the benzodiazepine receptor (in words) [1] | % of control specific binding, 1st ([1]; 10^−6 M) | % of control specific binding, 2nd ([1]; 10^−6 M) | % of control specific binding, mean ([1]; 10^−6 M) | % of control specific binding, 1st ([1]; 10^−7 M) | % of control specific binding, 2nd ([1]; 10^−7 M) | % of control specific binding, mean ([1]; 10^−7 M) | % of control specific binding, 1st ([1]; 10^−8 M) | % of control specific binding, 2nd ([1]; 10^−8 M) | % of control specific binding, mean ([1]; 10^−8 M) | Apo A1 (ng secreted per mg cell protein), 1st ([2]; 3 μM) | Apo A1 (ng secreted per mg cell protein), 2nd ([2]; 3 μM) | Apo A1 (ng secreted per mg cell protein), mean ([2]; 3 μM) | Apo A1 (ng secreted per mg cell protein), 1st ([2]; 10 μM) | Apo A1 (ng secreted per mg cell protein), 2nd ([2]; 10 μM) | Apo A1 (ng secreted per mg cell protein), mean ([2]; 10 μM) | Apo A1 (ng secreted per mg cell protein), 1st ([2]; 30 μM) | Apo A1 (ng secreted per mg cell protein), 2nd ([2]; 30 μM) | Apo A1 (ng secreted per mg cell protein), mean ([2]; 30 μM) | Apo A1 (ng secreted per mg cell protein), 1st ([2]; 100 μM) | further results
Cc1nnc2n1-c1sccc1C(c1ccc3c(c1)OCO3)=NC2 [compound 6, 4-(3′,4′-Methylenedioxyphenyl)-9-methyl-6H-thieno[3,2-f]-s-triazolo[4,3-a][1,4]diazepine] | no significant affinity | 88.7 % of control specific binding | 100.5 % of control specific binding | 94.6 % of control specific binding | 104.1 % of control specific binding | 101.3 % of control specific binding | 102.7 % of control specific binding | 92.7 % of control specific binding | 91.0 % of control specific binding | 91.9 % of control specific binding | 144 ng secreted per mg cell protein | 160 ng secreted per mg cell protein | 152 ng secreted per mg cell protein | 186 ng secreted per mg cell protein | 212 ng secreted per mg cell protein | 199 ng secreted per mg cell protein | 290 ng secreted per mg cell protein | 293 ng secreted per mg cell protein | 292 ng secreted per mg cell protein | 397 ng secreted per mg cell protein | % of control specific binding, 1st ([1]; 10^−9 M): 110.1 % of control specific binding; % of control specific binding, 2nd ([1]; 10^−9 M): 83.2 % of control specific binding; % of control specific binding, mean ([1]; 10^−9 M): 96.7 % of control specific binding; Apo A1 (ng secreted per mg cell protein), 2nd ([2]; 100 μM): 276 ng secreted per mg cell protein; Apo A1 (ng secreted per mg cell protein), mean ([2]; 100 μM): 336 ng secreted per mg cell protein; Stimulation of apo A1 secretion versus control level (in words) [2]: stimulated secetion of apo A1 above the control level
Cc1nnc2n1-c1sccc1C(c1ccccc1)=NC2 [compound 7, 9-Methyl-4-phenyl-6H-thieno[3,2-f]-s-triazolo[4,3-a][1,4]diazepine, reference compound] | moderate affinity | 18.9 % of control specific binding | 17.9 % of control specific binding | 18.4 % of control specific binding | 73.5 % of control specific binding | 68.0 % of control specific binding | 70.7 % of control specific binding | 89.0 % of control specific binding | 104.1 % of control specific binding | 96.5 % of control specific binding | 91 ng secreted per mg cell protein | 91 ng secreted per mg cell protein | 91 ng secreted per mg cell protein | 266 ng secreted per mg cell protein | 191 ng secreted per mg cell protein | 229 ng secreted per mg cell protein | 236 ng secreted per mg cell protein | 374 ng secreted per mg cell protein | 305 ng secreted per mg cell protein | 254 ng secreted per mg cell protein | IC50 ([1]; rat cerebral cortex membranes, read-out: IC50 of displacing the labelled ligand): ~500 nM; % of control specific binding, 1st ([1]; 10^−5 M): 2.3 % of control specific binding; % of control specific binding, 2nd ([1]; 10^−5 M): 1.8 % of control specific binding; % of control specific binding, mean ([1]; 10^−5 M): 2.1 % of control specific binding; Apo A1 (ng secreted per mg cell protein), 2nd ([2]; 100 μM): 364 ng secreted per mg cell protein; Apo A1 (ng secreted per mg cell protein), mean ([2]; 100 μM): 309 ng secreted per mg cell protein; Stimulation of apo A1 secretion versus control level (in words) [2]: clearly less active; Activity in increasing plasma apo A1 (in words) [3]: active in increasing plasma apolipoprotein A1
Cc1nnc2n1-c1sccc1C(c1ccccc1)=NC2(C)C [compound 5, 6,6-Dimethyl-4-phenyl-9-methyl-6H-thieno[3,2f]-s-triazolo[4,3-a][1,4]diazepine] | no significant affinity | 90.0 % of control specific binding | 100.4 % of control specific binding | 95.2 % of control specific binding | 91.5 % of control specific binding | 96.7 % of control specific binding | 94.1 % of control specific binding | 102.0 % of control specific binding | 94.3 % of control specific binding | 98.2 % of control specific binding | 247 ng secreted per mg cell protein | 124 ng secreted per mg cell protein | 185 ng secreted per mg cell protein | 274 ng secreted per mg cell protein | 156 ng secreted per mg cell protein | 215 ng secreted per mg cell protein | 219 ng secreted per mg cell protein | 227 ng secreted per mg cell protein | 223 ng secreted per mg cell protein | 273 ng secreted per mg cell protein | % of control specific binding, 1st ([1]; 10^−9 M): 88.9 % of control specific binding; % of control specific binding, 2nd ([1]; 10^−9 M): 104.6 % of control specific binding; % of control specific binding, mean ([1]; 10^−9 M): 96.8 % of control specific binding; Apo A1 (ng secreted per mg cell protein), 2nd ([2]; 100 μM): 277 ng secreted per mg cell protein; Apo A1 (ng secreted per mg cell protein), mean ([2]; 100 μM): 275 ng secreted per mg cell protein; Stimulation of apo A1 secretion versus control level (in words) [2]: stimulated secetion of apo A1 above the control level
CN1C(=O)CN=C(c2ccccc2)c2cc(Cl)ccc21 [diazepam, reference compound] | – | – | – | – | – | – | – | – | – | – | – | – | – | – | – | – | – | – | – | – | IC50 ([1]; 4° C., 60 min, read-out: IC50 of reference ligand in BZD binding assay): 16 nM
Cc1nnc2n1-c1sc(CCC(=O)N3CCOCC3)cc1C(c1ccccc1Cl)=NC2 [WEB2086] | – | – | – | – | – | – | – | – | – | – | – | – | – | – | – | – | – | – | – | – | PAF antagonistic activity (in words) [4]: platelet activating factor (PAF) antagonistic activity
